Test results as given in ChEMBL document CHEMBL1201862, “PubChem BioAssay data set” (2004).
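Results reflect a 48-hour exposure of cells in 96-well plates to compound at five concentrations. The concentration for 50% growth inhibition is given as GI50.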 Calls of active or inactive are those of the source. No stated cut-off is given here; in the data, active = GI50 up to about 1.1 µM and inactive = higher.

Key:
Assay in all cases: inhibition of tumour cell growth, NCI panel, 48 h
[1] = system: K562
[2] = system: M14
[3] = system: PC-3
[4] = system: HT-29
[5] = system: UO-31
[6] = system: OVCAR-4
[7] = system: NCI-H226
[8] = system: SR
[9] = system: MDA-N
[10] = system: SF-539
[11] = system: SN12C
[12] = system: HCT-116
[13] = system: IGROV-1
[14] = system: HOP-92
[15] = system: MCF7
[16] = system: SK-MEL-28
[17] = system: OVCAR-5
[18] = system: NCI-H522
[19] = system: TK-10
[20] = system: HOP-62
[21] = system: SNB-75
[22] = system: A498
[23] = system: HCC 2998
[24] = system: Hs-578T
[25] = system: MOLT-4
[26] = system: MDA-MB-435
[27] = system: ACHN
[28] = system: U-251
[29] = system: NCI-H460
[30] = system: NCI-H23
[31] = system: BT-549
[32] = system: Malme-3M
[33] = system: KM12
[34] = system: OVCAR-3
[35] = system: 786-0
[36] = system: DU-145
[37] = system: NCI/ADR-RES
[38] = system: LOX IMVI
[39] = system: SF-268
[40] = system: OVCAR-8
[41] = system: SK-MEL-2
[42] = system: RXF 393
[43] = system: RPMI-8226
[44] = system: SK-MEL-5
[45] = system: SNB-19
[46] = system: SF-295
[47] = system: SW-620
[48] = system: HCT-15
[49] = system: CAKI-1
[50] = system: MDA-MB-231
[51] = system: COLO 205
[52] = system: A549
[53] = system: EKVX
[54] = system: CCRF-CEM
[55] = system: UACC-62
[56] = system: UACC-257

CCN1C(=O)c2cc(OC)c(OC)cc2C(=O)C12OC(=O)c1cc3c(cc12)OCO3 (stereo unspecified)
GI50 [1]: > 100 µM (inactive) | GI50 [2]: 97.3 µM (inactive) | GI50 [3]: > 100 µM (inactive) | GI50 [4]: 87.3 µM (inactive) | GI50 [5]: > 100 µM (inactive) | GI50 [6]: 69.8 µM (inactive) | GI50 [7]: > 100 µM (inactive) | GI50 [8]: 51.4 µM (inactive) | GI50 [9]: > 100 µM (inactive) | GI50 [10]: 53.2 µM (inactive) | GI50 [11]: 61.5 µM (inactive) | GI50 [12]: 33.1 µM (inactive) | GI50 [13]: 97.9 µM (inactive) | GI50 [14]: 55.3 µM (inactive) | GI50 [15]: 78.9 µM (inactive) | GI50 [16]: > 100 µM (inactive) | GI50 [17]: > 100 µM (inactive) | GI50 [18]: > 100 µM (inactive) | GI50 [19]: 75.7 µM (inactive) | GI50 [20]: 49.4 µM (inactive) | GI50 [21]: 23 µM (inactive) | GI50 [22]: > 100 µM (inactive) | GI50 [23]: 54.7 µM (inactive) | GI50 [24]: 36.8 µM (inactive) | GI50 [25]: > 100 µM (inactive) | GI50 [26]: > 100 µM (inactive) | GI50 [27]: > 100 µM (inactive) | GI50 [28]: 43 µM (inactive) | GI50 [29]: 43.4 µM (inactive) | GI50 [30]: > 100 µM (inactive) | GI50 [31]: > 100 µM (inactive) | GI50 [32]: > 100 µM (inactive) | GI50 [33]: > 100 µM (inactive) | GI50 [34]: 63.5 µM (inactive) | GI50 [35]: 22.4 µM (inactive) | GI50 [36]: 31.3 µM (inactive) | GI50 [37]: > 100 µM (inactive) | GI50 [38]: 40.7 µM (inactive) | GI50 [39]: 69.7 µM (inactive) | GI50 [40]: 48 µM (inactive) | GI50 [41]: 20.2 µM (inactive) | GI50 [42]: 25.8 µM (inactive) | GI50 [43]: 24.1 µM (inactive) | GI50 [44]: 85.9 µM (inactive) | GI50 [45]: 39.5 µM (inactive) | GI50 [46]: 68.7 µM (inactive) | GI50 [47]: > 100 µM (inactive) | GI50 [48]: > 100 µM | GI50 [49]: > 100 µM (inactive) | GI50 [50]: 41.4 µM (inactive) | GI50 [51]: > 100 µM (inactive) | GI50 [52]: 36.9 µM (inactive) | GI50 [53]: > 100 µM (inactive) | GI50 [54]: 35.6 µM (inactive) | GI50 [55]: 80.5 µM (inactive) | GI50 [56]: > 100 µM (inactive)
